Source: PMC6753678, “Fueling Open Innovation for Malaria Transmission-Blocking Drugs: Hundreds of Molecules Targeting Early Parasite Mosquito Stages” (Frontiers in Microbiology, 2019)
Where two headings read alike, the source gives them in different places.

How the values were obtained:
[1] = system: P. berghei ookinete development; conditions: for % inhibition, Replicate A / % inhibition, Replicate B: primary screen at 1 μM
HepG2 cells = assay: HepG2 cytotoxicity assay; conditions: for Unified cytotox: HepG2 values of the three screens unified; for IC50: read-out: HepG2 cytotoxicity assay IC50, dose response confirmation; for Pb ODA (this manuscript) HepG2 cytoxicity: HepG2 cytotoxicity listed with the Pb ODA data set (this manuscript)
Summary of the method: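 HepG2 cells, 2,500 per well in MEM with 10% FBS and 1% NEAA, exposed to compounds for 48 h at 37°C, 5% CO2. Viability read by fluorescence; percent inhibition relative to 50 μM doxorubicin and DMSO controls.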

[2] = system: 3D7-strain P. falciparum asexual parasites; assay: P. falciparum asexual growth inhibition assay (Pf GIA); type: cell-based, Plasmodium falciparum; conditions: dose response confirmation; read-out: Pf asexual growth inhibition assays IC50
Summary of the method: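 LDH readout: absorbance at 650 nm after 10 min at room temperature with lactate/APAD/NBT/diaphorase mix on thawed plates. Cultures (0.25% parasitemia, 2% hematocrit) were treated 72 h at 37°C in low-oxygen gas. Inhibition was normalised to 50 μM chloroquine and DMSO; n=3 biological replicates.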

[3] = read-out: Pb ODA IC50, this manuscript
[4] = read-out: Pb Ookinete development assay IC50, dose response confirmation
[5] = read-out: Pb ODA (this manuscript) IC50, P. berghei ookinete development assay, this manuscript

## CCCC(C)n1ccc2c3c(N)nc(N)nc3ccc21 (centres unmarked) [TCMDC-137964]
[1]; 1: YES, 0: NO
  Is compound selective in assay? Pb ODA active?: 0 (0: NO)
[1]
  % inhibition, Replicate A: 50.53%
  % inhibition, Replicate B: 51.77%
[1]; [3]
  IC50: 4.29 µM
[1]; [4]
  IC50: 4.29 µM
HepG2 cells
  HepG2 cytoxicity (Pb ODA, this manuscript): 0.03 µM
  Unified cytotox: 0.03 µM
  IC50: 0.03 µM
[2]
  IC50: 0.035 µM

## CC(C)Cn1ncc2c3c(N)nc(N)nc3ccc21 [TCMDC-137970]
[1]
  Is compound selective in assay? Pb ODA active?: 0 (key: 1: YES; 0: NO)
  % inhibition, Replicate A: 76.14%
  % inhibition, Replicate B: 41.76%
[1]; [5]
  IC50: 1.75 µM
[1]; [4]
  IC50: 1.75 µM
HepG2 cells
  Pb ODA (this manuscript) HepG2 cytoxicity: 0.11 µM
  IC50: 0.11 µM
[2]
  IC50: 0.08 µM

## CN(C)S(=O)(=O)n1ccc2c3c(N)nc(N)nc3ccc21 [TCMDC-137973]
[1]
  Is compound selective in assay? Pb ODA active?: 0 (key: 1: YES; 0: NO)
  % inhibition, Replicate A: 72.90%
  % inhibition, Replicate B: 52.14%
[1]; [5]
  IC50: 1.27 µM
[1]; [4]
  IC50: 1.27 µM
HepG2 cells
  Pb ODA (this manuscript) HepG2 cytoxicity: 0.0017 µM
  IC50: 0.0017 µM
[2]
  IC50: 0.006 µM

## Nc1nc(N)c2c(ccc3c2ccn3Cc2ccccn2)n1 [TCMDC-137980]
[1]; 1: YES, 0: NO
  Is compound selective in assay? Pb ODA active?: 0 (0: NO)
[1]
  % inhibition, Replicate A: 50.19%
  % inhibition, Replicate B: 73.34%
[1]; [4]
  IC50: 2.43 µM
HepG2 cells
  HepG2 cytoxicity (Pb ODA, this manuscript): 0.00767 µM
  Unified cytotox: 0.00767 µM
  IC50: 0.00767 µM
[2]
  IC50: 0.00115 µM

## C=CCn1ccc2c3c(N)nc(N)nc3ccc21 [TCMDC-137995]
[1]; 1: YES, 0: NO
  Is compound selective in assay? Pb ODA active?: 0 (0: NO)
[1]
  % inhibition, Replicate A: 75.02%
  % inhibition, Replicate B: 69.00%
[1]; [3]
  IC50: 2.48 µM
[1]; [4]
  IC50: 2.48 µM
HepG2 cells
  HepG2 cytoxicity (Pb ODA, this manuscript): 1.00 µM
  Unified cytotox: 1.00 µM
  IC50: 1 µM
[2]
  IC50: 0.024 µM

## Nc1nc(N)c2c(ccc3c2ccn3Cc2cccc3ccccc23)n1 [TCMDC-137996]
[1]; 1: YES, 0: NO
  Is compound selective in assay? Pb ODA active?: 0 (0: NO)
[1]
  % inhibition, Replicate A: 55.22%
  % inhibition, Replicate B: 70.48%
[1]; [3]
  IC50: 5.76 µM
[1]; [4]
  IC50: 5.76 µM
HepG2 cells
  HepG2 cytoxicity (Pb ODA, this manuscript): 0.0017 µM
  Unified cytotox: 0.0017 µM
  IC50: 0.0017 µM
[2]
  IC50: 0.151 µM

## CC(C)Cn1ccc2c3c(N)nc(N)nc3ccc21 [TCMDC-137997]
[1]; 1: YES, 0: NO
  Is compound selective in assay? Pb ODA active?: 0 (0: NO)
[1]
  % inhibition, Replicate A: 52.84%
  % inhibition, Replicate B: 64.75%
[1]; [3]
  IC50: 1.4 µM
[1]; [4]
  IC50: 1.41 µM
HepG2 cells
  HepG2 cytoxicity (Pb ODA, this manuscript): 0.25 µM
  Unified cytotox: 0.25 µM
  IC50: 0.25 µM
[2]
  IC50: 0.019 µM

## CCCCCCc1c(C)nc2cc(OC)ccc2c1O [TCMDC-138010]
[1]
  Is compound selective in assay? Pb ODA active?: 1 (key: 1: YES; 0: NO)
  % inhibition, Replicate A: 110.05%
  % inhibition, Replicate B: 119.15%
[1]; [5]
  IC50: 0.08 µM
[1]; [4]
  IC50: 0.081 µM
HepG2 cells
  Pb ODA (this manuscript) HepG2 cytoxicity: 100.00 µM
  IC50: 100 µM
[2]
  IC50: 0.163 µM

## CCCCCCCc1c(C)nc2cccc(OC)c2c1O [TCMDC-138014]
[1]
  Is compound selective in assay? Pb ODA active?: 0 (key: 1: YES; 0: NO)
  % inhibition, Replicate A: 63.12%
  % inhibition, Replicate B: 36.77%
[1]; [5]
  IC50: 1.15 µM
[1]; [4]
  IC50: 1.15 µM
HepG2 cells
  Pb ODA (this manuscript) HepG2 cytoxicity: 5.50 µM
  IC50: 5.5 µM
[2]
  IC50: 1.99 µM

## CCCCCCCc1c(C)nc2c(OC)cccc2c1O [TCMDC-138016]
[1]
  Is compound selective in assay? Pb ODA active?: 1 (key: 1: YES; 0: NO)
  % inhibition, Replicate A: 91.04%
  % inhibition, Replicate B: 66.93%
[1]; [5]
  IC50: 0.53 µM
[1]; [4]
  IC50: 0.529 µM
HepG2 cells
  Pb ODA (this manuscript) HepG2 cytoxicity: 100.00 µM
  IC50: 100 µM
[2]
  IC50: 0.195 µM

## CCC(CC)n1cc2c(ccc3nc(N)nc(N)c32)n1 [TCMDC-138019]
[1]
  Is compound selective in assay? Pb ODA active?: 0 (key: 1: YES; 0: NO)
  % inhibition, Replicate A: 5.46%
  % inhibition, Replicate B: 62.28%
[1]; [5]
  IC50: 8.22 µM
[1]; [4]
  IC50: 8.22 µM
HepG2 cells
  Pb ODA (this manuscript) HepG2 cytoxicity: 0.0017 µM
  IC50: 0.0017 µM
[2]
  IC50: 0.06 µM
